{"source": "patent US20260262644A1", "about": "“Antifungal compositions comprising natamycin” (Patent Nata B.V., priority 2023, published 2026)", "key": {"Pythium ultimum [1]": {"tested_on": "Pythium ultimum", "assay": "Mycelium growth on PDA petri dishes containing natamycin and/or solvent; synergy by Colby equation", "type": "cell-based", "excerpt": "The Colby equation (Colby, 1967. Weeds 15: 20-22) calculates the expected antifungal activity (E in %) of a combination comprising more than one active ingredients:\nwherein X and Y are the observed antifungal activities (in %) of the individual active ingredients x and y, respectively. If the observed antifungal activity (O in %) of the combination exceeds the expected antifungal activity (E in %) of the combination and the synergy factor O/E is thus >1.0, the combined application of the active ingredients and solvent leads to a synergistic antifungal effect.\nAgar medium was prepared by mixing in a 100 ml Duran bottle 3.9 g of potato dextrose agar (PDA; Carl-Roth GmbH+Co. KG, Karlsruhe, Germany) with 100 ml deionized water and autoclaving the Duran bottle at 120° C. for 15 minutes. After autoclaving, the solution was cooled by putting it in a 50° C. oven for about two hours. Afterward the semi-liquid PDA solution was carefully mixed with natamycin and/or solvent dosages as specified in Table 2 (left column). The medium in the Duran bottle was divided over 5 petri dishes (90×15 mm), 20 ml per petri dish by using 25 ml serological pipets (ROTILABO®; Carl-Roth). Each natamycin and/or solvent treatment was performed in five fold.\nHereafter, a circular agar mycelium plug (circular segment with a height on 5 mm of agar, fully grown with fresh Pythium ultimum mycelium, which was cut out of a petri dish with the broad side of a yellow pipette tip (Greiner Bio-One, 200 μl tips) with a diameter of 5 mm, was placed in the center of the petri dish. Hereafter the petri dishes were placed in the incubator at 22° C. Measurement of the fungal growth was done using caliper.\nThe solvent levels and the period after which the assessments were made are presented as specified for the different solvents are presented in Table 2 below. Synergistic calculation was done using the Colby equation. Experiment was performed in 5-fold."}, "Botrytis cinerea": {"tested_on": "Botrytis cinerea", "assay": "Mycelium growth on PDA petri dishes containing natamycin and/or solvent; synergy by Colby equation", "type": "cell-based", "settings": "1 day after plug"}, "Pythium ultimum [2]": {"tested_on": "Pythium ultimum", "assay": "Emergence of coated spinach seeds in artificially infected soil", "type": "in vivo", "settings": "natamycin 0.25, BL 0, thymol 0 mg/g seeds, 6 days after sowing", "protocol": "Spinach seeds were placed in soil that was artificially infected (see below for method).\nSoil infection was obtained via incubation of soil with infected, killed rye seeds. […] The dead rye seeds were infected with Pythium ultimum PDA plugs (circular segments of PDA, covered with freshly fully grown Pythium ultimum mycelium, which were cut out of a petri dish with the broad side of a yellow pipette tip (Greiner Bio-One, 200 μl tips) with a diameter of 5 mm). Three P. ultimum agar plugs were placed in the 500 ml jar containing the 50 g autoclaved (dead) rye seeds, which was further incubated at 22° C. for one week (16 h day light, 8 hours dark). To prepare the infected soil, potting soil (Tuinaarde, ophoog grond, purchased from Welkoop) were placed in round transparent plastic containers (9 cm in diameter, 4.5 cm high, volume 250 ml). Ten infected rye seeds, that acted as a carrier for P. ultimum, were placed in each round plastic container. To treat the spinach seeds, 77.8 μl of treatment mix (see below) was added to 1 g of seeds in a plastic container. The seeds were shaken and let to dry. Once dried, 20 treated spinach seeds were added to the inoculated soil. The rye seeds and spinach seeds were mixed into the soil, so that both seed types were homogenously distributed within the soil as well as covered by the soil. […] Emergence of the seedlings was assessed. […]"}, "Pythium ultimum [3]": {"tested_on": "Pythium ultimum", "assay": "Emergence of coated radish seeds in artificially infected soil", "type": "in vivo", "settings": "natamycin 0.05, thymol 0 mg/g seeds, 2 days after sowing", "protocol": "Soil infection was obtained via incubation of soil with infected, killed rye seeds. For this, 50 g of rye seeds and 50 ml water were put into a 500 ml glass jar, which was autoclaved twice (121° C., 15 min, 15 psi). The dead rye seeds were infected with Pythium ultimum PDA plugs (circular segments of PDA, covered with freshly fully grown Pythium ultimum mycelium, which were cut out of a petri dish with the broad side of a yellow pipette tip (Greiner Bio-One, 200 μl tips) with a diameter of 5 mm). Three P. ultimum agar plugs were placed in the 500 ml jar containing the 50 g autoclaved (dead) rye seeds, which was further incubated at 22° C. for one week (16 h day light, 8 hours dark). To prepare the infected soil, potting soil (Tuinaarde, ophoog grond, purchased from Welkoop) were placed in round transparent plastic containers (9 cm in diameter, 4.5 cm high, volume 250 ml). Ten infected rye seeds, that acted as a carrier for P. ultimum, were placed in each round plastic container. […] The seeds were shaken and let to dry. […] The containers were closed with transparent lids and placed into a growth cabinet with the following growth conditions: 16 h day light, 22° C. constant temperature, 70% humidity. Emergence of the seedlings was assessed. For each treatment 3 pots were used, resulting in 3 replicates. […]"}, "[4]": {"assay": "Solubility of natamycin in solvents (HPLC)", "type": "physicochemical", "method": "The solubility of natamycin was measured in water and in the water-miscible solvent DMSO. For this, 240.6 mg and 94.3 mg of natamycin at a purity of 95% (DSM) were diluted in 50 ml of water and DMSO, respectively. The mixtures were sonicated for 30 minutes and analysed by HPLC. The HPLC system was an Agilent 1100 system. The column used was a ACE C18 RP column, 250×4.6 mm with pore size 5 μm. The mobile phase consisted of 1 g ammonium chloride and 3 g ammonium acetate dissolved in 760 mL water, and mixed with 240 mL acetonitrile and 5 mL tetrahydrofuran (THF). The speed of the flow was 3.0 ml/min and the column temperature was 25° C. The injection volume was 20 μL. Natamycin was detected with a spectrophotometer at a wavelength of 303 nm. All samples were centrifugated and filtered through 0.45 μm HPLC filters before analysis. The amount of dissolved natamycin measured in water and DMSO were 32 mg/kg and 2571 mg/kg, respectively (see Table 12).\nFor the water-miscible solvent Purasolv® EL, and the water-immiscible solvents BL and EHL, natamycin was added until it no longer dissolved. The mixtures were then filtered and analysed by HPLC. The amount of dissolved natamycin were 832, 211, and 271 mg/kg for EL, BL, and EHL, respectively (Table 12)."}, "[5]": {"settings": "natamycin-solvent 0-25 ppm, 2 days after plug"}, "[6]": {"settings": "natamycin-solvent 0-12.5 ppm, 1 day after plug"}, "[7]": {"settings": "natamycin-solvent 0-25 ppm, 1 day after plug"}, "[8]": {"settings": "natamycin-solvent 0-250 ppm, 1 day after plug"}, "[9]": {"settings": "natamycin-solvent 0-125 ppm, 2 days after plug, Tables 4-5"}, "[10]": {"settings": "natamycin-solvent 0-250 ppm, 2 days after plug, Tables 4-5"}, "[11]": {"settings": "natamycin-solvent 0-500 ppm, 2 days after plug, Tables 4-5"}, "[12]": {"settings": "natamycin-solvent 0-12.5 ppm, 2 days after plug"}, "[13]": {"settings": "natamycin-solvent 0-250 ppm, 2 days after plug"}}, "data": [{"compound": "Xylene", "values": [{"measurement": "Avg infected area", "setting": "Pythium ultimum [1]; [5]", "value": 5371.2, "unit": "mm^2"}, {"measurement": "Observed %", "setting": "Pythium ultimum [1]; [5]", "value": 1.35, "unit": "%"}]}, {"compound": "CCOC(=O)[C@H](C)O", "note": "[EL, ethyl L-lactate]", "values": [{"measurement": "Avg infected area", "setting": "Pythium ultimum [1]; natamycin-solvent 0-12.5 ppm, 1 day after plug, Tables 6-7", "value": 625.9774, "unit": "mm2"}, {"measurement": "Avg infected area", "setting": "Pythium ultimum [1]; natamycin-solvent 0-25 ppm, 1 day after plug, Tables 6-7", "value": 574.2358, "unit": "mm2"}, {"measurement": "Avg infected area", "setting": "Pythium ultimum [1]; natamycin-solvent 0-50 ppm, 1 day after plug, Tables 6-7", "value": 619.378, "unit": "mm2"}, {"measurement": "Avg infected area", "setting": "Botrytis cinerea; natamycin-solvent 0-0.5 ppm", "value": 1390.376, "unit": "mm2"}, {"measurement": "Observed %", "setting": "Botrytis cinerea; natamycin-solvent 0-0.5 ppm", "value": 29.48, "unit": "%"}]}, {"compound": "CC(O)C(=O)N(C)C", "note": "(stereo not shown) [Agnique ® AMD 3L, dimethyllactamide]", "values": [{"measurement": "Avg infected area", "setting": "Pythium ultimum [1]; [6]", "value": 1220.5, "unit": "mm^2"}, {"measurement": "Observed %", "setting": "Pythium ultimum [1]; [6]", "value": 10.31, "unit": "%"}, {"measurement": "Avg infected area", "setting": "Pythium ultimum [1]; [7]", "value": 1116.3, "unit": "mm^2"}, {"measurement": "Observed %", "setting": "Pythium ultimum [1]; [7]", "value": 17.97, "unit": "%"}, {"measurement": "Avg infected area", "setting": "Pythium ultimum [1]; [8]", "value": 1278.7, "unit": "mm^2"}, {"measurement": "Observed %", "setting": "Pythium ultimum [1]; [8]", "value": 6.04, "unit": "%"}]}, {"compound": "C[S+](C)[O-]", "note": "[DMSO, Dimethyl Sulfoxide]", "values": [{"measurement": "Avg infected area", "setting": "Pythium ultimum [1]; [9]", "value": 5247.969, "unit": "mm2"}, {"measurement": "Avg infected area", "setting": "Pythium ultimum [1]; [10]", "value": 5238.583, "unit": "mm2"}, {"measurement": "Avg infected area", "setting": "Pythium ultimum [1]; [11]", "value": 5129.162, "unit": "mm2"}, {"measurement": "Avg infected area", "setting": "Pythium ultimum [1]; natamycin-solvent 0-1000 ppm, 2 days after plug, Tables 4-5", "value": 4475.89, "unit": "mm2"}]}, {"compound": "CCCCC(CC)COC(=O)[C@H](C)O", "note": "(stereo partly drawn) [EHL, 2-ethylhexyl L-lactate]", "values": [{"measurement": "Avg infected area", "setting": "Pythium ultimum [1]; natamycin-solvent 0-125 ppm, 1 day after plug, Tables 6-7", "value": 290.1899, "unit": "mm2"}, {"measurement": "Avg infected area", "setting": "Pythium ultimum [1]; natamycin-solvent 0-250 ppm, 1 day after plug, Tables 6-7", "value": 34.78, "unit": "mm2"}, {"measurement": "Avg infected area", "setting": "Botrytis cinerea; natamycin-solvent 0-0.5 ppm", "value": 1740.142, "unit": "mm2"}, {"measurement": "Observed %", "setting": "Botrytis cinerea; natamycin-solvent 0-0.5 ppm", "value": 11.74, "unit": "%"}]}, {"compound": "CC(O)C(=O)N(C)C", "note": "(stereo not shown) [DMAC, dimethyllactamide]", "values": [{"measurement": "Avg infected area", "setting": "Pythium ultimum [1]; [6]", "value": 1251.6, "unit": "mm^2"}, {"measurement": "Observed %", "setting": "Pythium ultimum [1]; [6]", "value": 6.73, "unit": "%"}, {"measurement": "Avg infected area", "setting": "Pythium ultimum [1]; [8]", "value": 1316.1, "unit": "mm^2"}, {"measurement": "Observed %", "setting": "Pythium ultimum [1]; [8]", "value": 1.93, "unit": "%"}]}, {"compound": "CCO", "note": "[EtOH, Ethanol]", "values": [{"measurement": "Avg infected area", "setting": "Pythium ultimum [1]; [9]", "value": 5488.804, "unit": "mm2"}, {"measurement": "Avg infected area", "setting": "Pythium ultimum [1]; [10]", "value": 5286.064, "unit": "mm2"}, {"measurement": "Avg infected area", "setting": "Pythium ultimum [1]; [11]", "value": 4366.453, "unit": "mm2"}, {"measurement": "Avg infected area", "setting": "Botrytis cinerea; natamycin-solvent 0-0.5 ppm", "value": 1602.867, "unit": "mm2"}, {"measurement": "Observed %", "setting": "Botrytis cinerea; natamycin-solvent 0-0.5 ppm", "value": 18.70, "unit": "%"}]}, {"compound": "C=CCCCCCCCC(=O)N(C)C", "note": "[Hallcomid ® 1025]", "values": [{"measurement": "Avg infected area", "setting": "Pythium ultimum [1]; [12]", "value": 3666.2, "unit": "mm^2"}, {"measurement": "Observed %", "setting": "Pythium ultimum [1]; [12]", "value": 30.89, "unit": "%"}, {"measurement": "Avg infected area", "setting": "Pythium ultimum [1]; [5]", "value": 2118.6, "unit": "mm^2"}, {"measurement": "Observed %", "setting": "Pythium ultimum [1]; [5]", "value": 60.06, "unit": "%"}, {"measurement": "Avg infected area", "setting": "Pythium ultimum [1]; [13]", "value": 0, "unit": "mm^2"}, {"measurement": "Observed %", "setting": "Pythium ultimum [1]; [13]", "value": 100.00, "unit": "%"}]}, {"compound": "C[C@@H]1C/C=C/C=C/C=C/C=C/[C@H](O[C@@H]2O[C@H](C)[C@@H](O)[C@H](N)[C@@H]2O)C[C@@H]2O[C@](O)(C[C@@H](O)C[C@H]3O[C@@H]3/C=C/C(=O)O1)C[C@H](O)[C@H]2C(=O)O", "note": "[Natamycin]", "values": [{"measurement": "Avg infected area", "setting": "Pythium ultimum [1]; natamycin-solvent 25-0 ppm, 2 days after plug, Tables 4-5", "value": 4397.811, "unit": "mm2"}, {"measurement": "Avg infected area", "setting": "Pythium ultimum [1]; natamycin-solvent 50-0 ppm, 1 day after plug, Tables 6-7", "value": 563.7967, "unit": "mm2"}, {"measurement": "Avg infected area", "setting": "Pythium ultimum [1]; natamycin-solvent 50-0 ppm, 2 days after plug, Tables 4-5", "value": 4891.484, "unit": "mm2"}, {"measurement": "Avg infected area", "setting": "Pythium ultimum [1]; natamycin-solvent 100-0 ppm, 2 days after plug, Tables 4-5", "value": 4435.301, "unit": "mm2"}, {"measurement": "Avg infected area", "setting": "Pythium ultimum [1]; natamycin-solvent 200-0 ppm, 2 days after plug, Tables 4-5", "value": 5059.918, "unit": "mm2"}, {"measurement": "Avg infected area", "setting": "Botrytis cinerea; natamycin-solvent 0.5-0 ppm", "value": 1183.171, "unit": "mm2"}, {"measurement": "Observed %", "setting": "Botrytis cinerea; natamycin-solvent 0.5-0 ppm", "value": 39.99, "unit": "%"}, {"measurement": "Avg germination", "setting": "Pythium ultimum [2]", "value": 18.3}, {"measurement": "Observed %", "setting": "Pythium ultimum [2]", "value": 37.50, "unit": "%"}, {"measurement": "Avg germination", "setting": "Pythium ultimum [3]", "value": 41.7}, {"measurement": "Observed %", "setting": "Pythium ultimum [3]", "value": 13.64, "unit": "%"}, {"measurement": "Natamycin concentration (amount of dissolved natamycin)", "setting": "[4]; in 2-ethylhexyl L-lactate (Purasolv EHL)", "value": 271, "unit": "mg/kg"}, {"measurement": "Natamycin concentration (amount of dissolved natamycin)", "setting": "[4]; in DMSO", "value": 2571, "unit": "mg/kg"}, {"measurement": "Natamycin concentration (amount of dissolved natamycin)", "setting": "[4]; in ethyl L-lactate (Purasolv EL)", "value": 832, "unit": "mg/kg"}, {"measurement": "Natamycin concentration (amount of dissolved natamycin)", "setting": "[4]; in n-butyl L-lactate (Purasolv BL)", "value": 211, "unit": "mg/kg"}, {"measurement": "Natamycin concentration (amount of dissolved natamycin)", "setting": "[4]; in water", "value": 32, "unit": "mg/kg"}]}]}
